Source: ChEMBL document CHEMBL1157927, “Identification and structure-activity relationship of 8-hydroxy-quinoline-7-carboxylic acid derivatives as inhibitors of Pim-1 kinase” (Bioorg Med Chem Lett, 2010)

Experiments:
[1] = biological target: T1, Serine/threonine-protein kinase pim-1 (Homo sapiens, UniProt P11309); experiment: Inhibition of PIM1
Target sequence in this assay (P11309 whole entry): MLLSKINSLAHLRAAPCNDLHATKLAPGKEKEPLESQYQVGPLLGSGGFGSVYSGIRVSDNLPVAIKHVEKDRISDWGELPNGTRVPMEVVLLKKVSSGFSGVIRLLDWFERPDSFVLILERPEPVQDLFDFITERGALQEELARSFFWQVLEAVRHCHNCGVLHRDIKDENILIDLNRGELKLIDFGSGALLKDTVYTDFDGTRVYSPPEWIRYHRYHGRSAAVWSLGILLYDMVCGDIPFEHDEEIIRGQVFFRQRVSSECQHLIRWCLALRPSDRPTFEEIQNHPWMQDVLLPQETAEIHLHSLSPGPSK

[2] = biological target: T1, Serine/threonine-protein kinase pim-1; experiment: Inhibition of PIM1 at 10 uM
Target sequence in this assay (P11309 whole entry, looked up): as the sequence (P11309 whole entry) above

[3] = biological target: Cyclin-dependent kinase 5/CDK5 activator 1 (Homo sapiens, UniProt Q00535); experiment: Inhibition of CDK5/P25; type: protein-complex assay
[4] = biological target: Cyclin-dependent kinase 1/cyclin B1 (Homo sapiens, UniProt P06493); experiment: Inhibition of CDK1/cyclin B; type: protein-complex assay
[5] = biological target: Casein kinase I isoform alpha (Homo sapiens, UniProt P48729); experiment: Inhibition of CK1
[6] = biological target: Dual specificity tyrosine-phosphorylation-regulated kinase 1A (Mus musculus, UniProt Q61214); experiment: Inhibition of mouse DYRK1A expressed in Escherichia coli after 20 mins
[7] = biological target: Glycogen synthase kinase-3 (Homo sapiens, UniProt P49840+P49841); experiment: Inhibition of GSK3alpha/beta; type: protein assay
[8] = biological target: T2, Dual specificity tyrosine-phosphorylation-regulated kinase 2 (Homo sapiens, UniProt Q92630); experiment: Inhibition of DYRK2
T2 sequence (Q92630 whole entry): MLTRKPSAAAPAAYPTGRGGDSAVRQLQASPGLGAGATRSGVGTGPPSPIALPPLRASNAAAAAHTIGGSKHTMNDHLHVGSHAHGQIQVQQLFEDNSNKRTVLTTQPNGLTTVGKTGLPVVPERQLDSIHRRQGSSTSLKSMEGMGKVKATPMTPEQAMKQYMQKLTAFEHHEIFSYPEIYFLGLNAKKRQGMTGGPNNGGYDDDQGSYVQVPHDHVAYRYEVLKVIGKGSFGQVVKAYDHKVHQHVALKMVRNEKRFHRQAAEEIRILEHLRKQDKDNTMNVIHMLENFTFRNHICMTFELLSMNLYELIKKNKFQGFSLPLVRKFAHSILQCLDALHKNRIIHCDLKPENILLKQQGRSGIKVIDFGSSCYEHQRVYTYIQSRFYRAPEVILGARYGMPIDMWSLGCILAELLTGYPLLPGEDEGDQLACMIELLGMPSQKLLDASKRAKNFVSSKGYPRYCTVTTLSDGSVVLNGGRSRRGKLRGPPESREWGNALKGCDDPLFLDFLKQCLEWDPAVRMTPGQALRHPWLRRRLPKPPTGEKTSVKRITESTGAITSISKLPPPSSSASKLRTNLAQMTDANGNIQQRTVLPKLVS

[9] = biological target: Dual specificity protein kinase CLK1 (Homo sapiens, UniProt P49759); experiment: Inhibition of CLK1
CDK1/Cyclin A = CDK1/Cyclin A (Homo sapiens, UniProt P06493); experiment: Inhibition of CDK1/Cyclin A; type: protein-complex assay
Chain of CDK1/Cyclin A (P06493 whole entry): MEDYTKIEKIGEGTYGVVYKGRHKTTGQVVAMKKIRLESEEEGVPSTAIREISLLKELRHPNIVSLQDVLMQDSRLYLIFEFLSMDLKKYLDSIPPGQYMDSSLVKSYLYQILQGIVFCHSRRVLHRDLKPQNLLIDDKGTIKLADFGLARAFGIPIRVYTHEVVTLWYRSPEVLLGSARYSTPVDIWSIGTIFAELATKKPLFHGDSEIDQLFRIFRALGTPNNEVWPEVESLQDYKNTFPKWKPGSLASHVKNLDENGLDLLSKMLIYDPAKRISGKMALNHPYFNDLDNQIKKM
Chain of CDK1/Cyclin A (P20248 whole entry, further chain): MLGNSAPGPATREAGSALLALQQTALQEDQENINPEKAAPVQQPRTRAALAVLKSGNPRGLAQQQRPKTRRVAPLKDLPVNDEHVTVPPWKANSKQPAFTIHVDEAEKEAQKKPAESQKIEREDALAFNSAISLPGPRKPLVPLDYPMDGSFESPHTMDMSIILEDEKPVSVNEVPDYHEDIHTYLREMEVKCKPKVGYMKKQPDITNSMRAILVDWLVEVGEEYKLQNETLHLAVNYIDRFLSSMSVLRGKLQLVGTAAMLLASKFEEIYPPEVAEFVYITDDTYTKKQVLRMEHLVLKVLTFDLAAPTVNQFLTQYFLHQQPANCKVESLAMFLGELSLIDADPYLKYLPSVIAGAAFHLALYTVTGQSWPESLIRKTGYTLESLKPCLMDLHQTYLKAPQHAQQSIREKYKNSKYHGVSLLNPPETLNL

Chain of Dual specificity protein kinase CLK1 (P49759 whole entry): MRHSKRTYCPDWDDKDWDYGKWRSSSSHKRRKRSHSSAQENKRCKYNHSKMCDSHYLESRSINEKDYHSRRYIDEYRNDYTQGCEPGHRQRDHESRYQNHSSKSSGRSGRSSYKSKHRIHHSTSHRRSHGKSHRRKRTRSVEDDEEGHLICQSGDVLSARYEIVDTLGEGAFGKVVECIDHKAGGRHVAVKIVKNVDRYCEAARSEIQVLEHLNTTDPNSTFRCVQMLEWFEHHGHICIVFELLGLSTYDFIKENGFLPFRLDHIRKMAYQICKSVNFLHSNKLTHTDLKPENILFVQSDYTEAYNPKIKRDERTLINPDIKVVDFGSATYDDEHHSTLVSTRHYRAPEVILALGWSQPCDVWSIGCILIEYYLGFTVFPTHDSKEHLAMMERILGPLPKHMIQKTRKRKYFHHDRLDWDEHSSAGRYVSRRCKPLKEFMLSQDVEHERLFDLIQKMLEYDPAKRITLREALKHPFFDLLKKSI
Chain of Cyclin-dependent kinase 5/CDK5 activator 1 (Q00535 whole entry): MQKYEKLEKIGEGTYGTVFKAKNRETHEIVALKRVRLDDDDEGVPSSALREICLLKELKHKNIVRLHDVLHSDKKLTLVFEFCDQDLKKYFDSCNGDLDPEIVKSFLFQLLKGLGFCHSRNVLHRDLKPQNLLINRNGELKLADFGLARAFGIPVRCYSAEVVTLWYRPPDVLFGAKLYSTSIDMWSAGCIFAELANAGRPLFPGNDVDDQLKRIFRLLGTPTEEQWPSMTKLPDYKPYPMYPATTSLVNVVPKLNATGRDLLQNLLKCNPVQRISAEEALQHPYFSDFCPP
Chain of Cyclin-dependent kinase 5/CDK5 activator 1 (Q15078 whole entry, further chain): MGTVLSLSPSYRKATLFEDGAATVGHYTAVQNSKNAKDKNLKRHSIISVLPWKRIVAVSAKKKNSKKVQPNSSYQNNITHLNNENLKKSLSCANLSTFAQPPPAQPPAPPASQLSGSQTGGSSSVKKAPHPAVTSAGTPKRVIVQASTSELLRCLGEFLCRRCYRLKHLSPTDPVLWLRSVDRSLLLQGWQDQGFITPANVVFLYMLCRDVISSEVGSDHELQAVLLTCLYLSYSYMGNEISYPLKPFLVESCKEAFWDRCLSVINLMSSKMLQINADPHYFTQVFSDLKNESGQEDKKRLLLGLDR
Chain of Cyclin-dependent kinase 1/cyclin B1 (P06493 whole entry, canonical isoform): as the sequence (P06493 whole entry) above
Chain of Cyclin-dependent kinase 1/cyclin B1 (P14635 whole entry, further chain, canonical isoform): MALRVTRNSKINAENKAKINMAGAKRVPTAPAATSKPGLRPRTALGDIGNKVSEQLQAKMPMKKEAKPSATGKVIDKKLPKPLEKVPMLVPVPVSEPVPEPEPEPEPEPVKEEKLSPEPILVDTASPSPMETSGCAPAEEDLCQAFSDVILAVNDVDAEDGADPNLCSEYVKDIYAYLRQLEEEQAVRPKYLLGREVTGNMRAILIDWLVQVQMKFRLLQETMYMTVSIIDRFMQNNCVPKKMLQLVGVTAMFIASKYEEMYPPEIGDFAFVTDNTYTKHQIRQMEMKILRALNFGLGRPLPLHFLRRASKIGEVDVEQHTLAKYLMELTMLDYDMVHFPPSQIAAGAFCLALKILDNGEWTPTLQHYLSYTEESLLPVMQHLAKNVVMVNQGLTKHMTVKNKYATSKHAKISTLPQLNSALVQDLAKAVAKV
Chain of Casein kinase I isoform alpha (P48729 whole entry, canonical isoform): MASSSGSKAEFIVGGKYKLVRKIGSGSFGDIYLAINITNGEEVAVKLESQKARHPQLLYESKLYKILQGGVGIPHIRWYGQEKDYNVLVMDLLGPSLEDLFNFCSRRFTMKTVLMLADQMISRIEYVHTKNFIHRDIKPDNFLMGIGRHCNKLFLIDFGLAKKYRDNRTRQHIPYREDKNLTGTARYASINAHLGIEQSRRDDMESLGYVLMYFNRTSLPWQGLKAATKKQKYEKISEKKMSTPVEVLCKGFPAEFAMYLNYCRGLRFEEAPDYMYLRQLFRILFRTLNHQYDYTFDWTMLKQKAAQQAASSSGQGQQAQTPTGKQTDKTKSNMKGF

Row | SMILES | IC50 [1] [µM] | inhibition [2] [%] | other results
1 | O=C(NNc1ccccc1)c1ccc2ccc(C(=O)O)c(O)c2n1 | 5.1 | – | –
2 | O=C(O)c1ccc2ccc(/C=C/c3cc(O)cc(O)c3)nc2c1O | 0.4 | – | –
3 | Cc1ccc2ccc(C(=O)O)c(O)c2n1 | > 10 | > 50 | –
4 | Nc1ccc(/C=C/c2ccc3ccc(C(=O)O)c(O)c3n2)cc1 | 4 | – | –
5 | O=C(O)c1ccc2ccc(CCc3ccc(O)c(O)c3)nc2c1O | 5 | > 50 | –
6 | O=C(O)c1ccc2ccc(/C=C/c3cccc(O)c3O)nc2c1O | 7 | – | –
7 | O=C(O)c1cc(/C=C/c2ccc3ccc(C(=O)O)c(O)c3n2)ccc1O | 3.1 | – | –
8 | O=C(NCc1ccc(O)cc1)c1ccc2cccc(C(=O)O)c2n1 | > 10 | > 50 | –
9 | Cc1ccc2cccc(NS(C)(=O)=O)c2n1 | > 10 | > 50 | –
10 | COc1cc(/C=C/c2ccc3ccc(C(=O)O)c(O)c3n2)cc(OC)c1O | 2.5 | – | –
11 | O=C(O)c1ccc2ccc(/C=C/c3ccc(O)c(O)c3)nc2c1O | 1.7 | > 50 | –
12 | O=C(NCc1ccc(O)c(O)c1)c1ccc2ccc(C(=O)O)c(O)c2n1 | 2.1 | > 50 | –
13 | O=C(NCc1cc(O)cc(O)c1)c1ccc2ccc(C(=O)O)c(O)c2n1 | 0.6 | – | –
14 | O=C(O)c1cccc2ccc(/C=C/c3ccc(O)c(O)c3)nc12 | > 10 | > 50 | –
15 | O=C(NCc1ccc(O)c(O)c1)Nc1ccc2ccc(C(=O)O)c(O)c2n1 | 0.5 | – | –
16 | COc1cc(CNC(=O)c2ccc3ccc(C(=O)O)c(O)c3n2)cc(O)c1O | 3.3 | – | –
17 | O=C(O)c1ccc(O)c2nc(/C=C/c3ccc(O)c(O)c3)ccc12 | > 10 | < 50 | –
18 | O=C(NCc1cccc(O)c1O)c1ccc2ccc(C(=O)O)c(O)c2n1 | 2.8 | – | –
19 | O=C(c1ccncc1)c1ccc2ccc(/C=C/c3ccc(O)c(O)c3)nc2c1O | > 10 | < 50 | –
20 | O=C(O)c1ccc2ccc(/C=C/c3ccc([N+](=O)[O-])cc3)nc2c1O | 3.4 | – | –
21 | COc1cc(/C=C/c2ccc3ccc(C(=O)O)c(O)c3n2)ccc1O | 2 | – | –

Row | SMILES | IC50 [1] [µM] | inhibition [2] [%] | other results
22 | COc1cc(/C=C/c2ccc3ccc(C(=O)O)c(O)c3n2)cc(O)c1O | 3.1 | – | –
23 | O=C(O)c1ccc2ccc(/C=C/c3ccc(F)c(F)c3)nc2c1O | 4.5 | – | –
24 | Oc1ccc(/C=C/c2ccc3cccc(O)c3n2)cc1O | > 10 | > 50 | –
25 | COc1cc(/C=C/c2ccc3ccc(C(=O)O)c(O)c3n2)cc(Cl)c1O | 4.5 | – | –
26 | COc1cc(/C=C/c2ccc3ccc(C(=O)O)c(O)c3n2)cc([N+](=O)[O-])c1O | 2.8 | – | –
27 | Cc1ccc2c(-c3ccccc3)cc(C(=O)O)c(O)c2n1 | > 10 | > 50 | –
28 | COc1ccc(CNC(=O)Nc2ccc3ccc(C(=O)O)c(O)c3n2)cc1 | 2 | – | –
29 | O=C(O)c1ccc2ccc(/C=C/c3ccc(O)cc3)nc2c1O | 0.7 | – | –
30 | O=C(O)c1ccc2ccc(/C=C/c3ccc4c(c3)OCO4)nc2c1O | 3 | – | –
31 | O=C(NCc1ccc(O)c(O)c1)c1ccc2c(Cl)cc(Cl)c(O)c2n1 | > 10 | > 50 | –
32 | COc1cc(NC(=O)c2ccc3ccc(C(=O)O)c(O)c3n2)cc(O)c1O | 1 | – | –
33 | O=C(O)c1ccc2ccc(/C=C/c3cc(O)c(O)c(O)c3)nc2c1O | 5.5 | – | –
34 | O=C(NCc1ccc(O)cc1O)c1ccc2ccc(C(=O)O)c(O)c2n1 | 0.2 | – | IC50 [3]: > 10 µM; IC50 [4]: > 10 µM; IC50 [5]: > 10 µM; IC50 [6]: 4.5 µM; IC50 [7]: > 10 µM; IC50 [8]: 6.3 µM; IC50 [9]: > 10 µM; IC50 (CDK1/Cyclin A): > 10 µM
35 | O=C(O)c1ccc2ccc(/C=C/c3cc(Br)c(O)c(Br)c3)nc2c1O | 2.1 | – | –
36 | O=C(O)c1ccc2ccc(/C=C/c3ccc(O)cc3O)nc2c1O | 0.5 | – | –
37 | O=C(Nc1ccc(O)c(O)c1)Nc1ccc2ccc(C(=O)O)c(O)c2n1 | 1 | – | –
38 | COc1ccc(/C=C/c2ccc3ccc(C(=O)O)c(O)c3n2)cc1O | 0.5 | – | IC50 [3]: > 10 µM; IC50 [4]: > 10 µM; IC50 [5]: > 10 µM; IC50 [6]: 1.3 µM; IC50 [7]: > 10 µM; IC50 [8]: 1.1 µM; IC50 [9]: 8.3 µM; IC50 (CDK1/Cyclin A): > 10 µM
39 | O=C(O)c1ccc2ccc(/C=C/c3ccccc3)nc2c1O | 3.2 | – | –
40 | Cc1ccc2cccc(C(=O)O)c2n1 | > 10 | > 50 | –
41 | O=C(NNc1ccc([N+](=O)[O-])cc1[N+](=O)[O-])c1ccc2ccc(C(=O)O)c(O)c2n1 | 3 | – | –
